# Assay results published in patent US4826856A, “Calcium antagonistic dihydropyridine derivative” (Yason s.r.l., priority 1985, dated 1989).
# Like-named read-outs stand apart in the source and are kept apart here.
# How the values were obtained:
# volunteers = assay: Clinical tolerance of oral treatment in volunteers; assay type: in vivo, human
# Procedure: The study was performed in 4 male subjects aged 26-43 years.
# Each volunteer received one capsule of 20 mg of YS 201 with a glass of water.
# The same four volunteers, after the first administration were treated with increasing doses of YS 201: 30-40-50 mg.
# Sprague-Dawley rats [1] = assay: Ventricular arrhythmias after re-circulation; assay type: in vivo, rat
# Procedure: (§1) Ventricular arrhythmias after coronary artery ligation in the acute phase or during the period of re-circulation
# (§2) Sprague-Dawley rats were subjected to ligation of the left coronary artery according to the method of Clark et al. in J. Pharmacol. Methods 3, 357-368, 1980. The drugs were administered by gastric tube 30 minutes before the ligation. By means of a continuous electrocardiographic recording, the ventricular arrhythmias such as ectopic beats (EB), ventricular tachycardia (VT), ventricular fibrillation (VF) for 30 minutes after ligation, were recorded.
# [2] = Bioavailability after oral administration in normal volunteers; assay type: in vivo, human; parameters: AUC: concentration or dose not given beside the values; conditions: for Tmax / Cmax / half-life / AUC: human, plasma, po; for Tmax / Cmax: oral 20 mg
# Procedure: The study was performed in 4 male subjects aged 26-43 years. Pharmacokinetic studies were performed both after acute and repeated administrations. Acute administration […] Further venous blood samples were withdrawn 15-30 minutes and 1.0-1.5-2.0-4.0-6.0-8.0 hours after treatment. Multiple-doses administration […] Blood samples were withdrawn 2-4-8-12 hours after the last treatment.
# [3] = Acute toxicity in the rat; conditions: in vivo
# Text: The acute toxicity of YS 201 given by intraveous route, similar in the males and in the females in the rat as well as in the mouse, is as follows:
# The acute toxicity of YS 201 given by oral route, similar in the males and in the females in the rat as well as in the mouse, is as follows: […]
# Sprague-Dawley rats [4] = assay: Ventricular arrhythmias during coronary artery ligation period; assay type: in vivo, rat; parameters: EBs, mean value of indices + SEM / VT, mean value of indices + SEM / VF, mean value of indices + SEM: scale not given here
# Procedure: as §1, §2
# SHR-SP = assay: Effect on blood pressure in 6 month old SHR-SP (intraduodenal); assay type: in vivo, rat; parameters: DBP (dyastolic blood pressure) / MBP (mean blood pressure) / SBP (systolic blood pressure) / S-D (difference between systolic and diastolic blood pressure): unit not given here; conditions: 15 mg/kg intraduodenal
# Text: Comparative effect of YS 201 on 3 month old rats and 6 month old SHR-SP
structure (smiles),measurement,setting,value
"CCOC(=O)C1=C(C)NC(C)=C(C(=O)OCCN2CCCCC2)C1c1cccc([N+](=O)[O-])c1 (stereo not drawn) [YS 201, ethyl-(β-piperidinoethyl)-2,6-dimethyl-4-(3-nitrophenyl)-1,4-dihydropyridine-3,5-dicarboxylate]",normal respiratory function and other vital parameters,volunteers; oral,not affected
same,pathological modification of the arterial pressure,volunteers; oral,not observed
same,tolerance of oral treatment,volunteers; oral,well tolerated
same,sinus bradycardia,"volunteers; oral, two subjects (n. 3, 4)",moderate but definite sinus bradycardia
same,atrio-ventricular conduction time (PR interval),"volunteers; subject n. 1, delayed from 0.14 sec.",0.16 s
same,atrio-ventricular conduction time (PR interval),"volunteers; subject n. 2, delayed from 0.16 sec.",0.18 s
same,"atrio-ventricular conduction time (PR interval), change","volunteers; two subjects (n. 1, 2)",slightly prolonged
same,Death rate %,Sprague-Dawley rats [1]; 7.5 mg/kg p.o.,10%
same,"EBs, mean value of indices + SEM",Sprague-Dawley rats [1]; 7.5 mg/kg p.o.,42.8 ± 10.08
same,VF %,Sprague-Dawley rats [1]; 7.5 mg/kg p.o.,60%
same,"VF, mean value of indices + SEM",Sprague-Dawley rats [1]; 7.5 mg/kg p.o.,1.3 ± 0.52
same,"VT, mean value of indices + SEM",Sprague-Dawley rats [1]; 7.5 mg/kg p.o.,2.2 ± 1.70
same,Death rate %,Sprague-Dawley rats [1]; 15 mg/kg p.o.,0%
same,"EBs, mean value of indices + SEM",Sprague-Dawley rats [1]; 15 mg/kg p.o.,27.20 ± 5.87
same,VF %,Sprague-Dawley rats [1]; 15 mg/kg p.o.,50%
same,"VF, mean value of indices + SEM",Sprague-Dawley rats [1]; 15 mg/kg p.o.,0.6 ± 0.33
same,"VT, mean value of indices + SEM",Sprague-Dawley rats [1]; 15 mg/kg p.o.,1.2 ± 0.39
same,decline of plasma profile (compartment analysis),[2]; acute and repeated administration,declines in one phase
same,unchanged drug in plasma,"[2]; after six hours, acute",still present in the plasma
same,Tmax,"[2]; 20 mg, acute study, read-out: average T max (converted)",1.5 h
same,Cmax,"[2]; 20 mg, acute study, ±2.65 S.E., read-out: mean peak plasma level",57.2 ng/mL
same,half-life,"[2]; 20 mg, after acute administration, mean of 4 volunteers, read-out: T1/2 el. (converted)",1.88 h
same,half-life,"[2]; 20 mg, after acute administration, volunteer 1, read-out: T1/2 el. (converted)",1.99 h
same,half-life,"[2]; 20 mg, after acute administration, volunteer 2, read-out: T1/2 el. (converted)",1.05 h
same,half-life,"[2]; 20 mg, after acute administration, volunteer 3, read-out: T1/2 el. (converted)",1.8 h
same,half-life,"[2]; 20 mg, after acute administration, volunteer 4, read-out: T1/2 el. (converted)",2.66 h
same,half-life,"[2]; 20 mg, after acute administration, ±0.65 S.D., read-out: mean T1/2 el. / terminal half life (converted)",1.8 h
same,Cmax,"[2]; 20 mg, mean of 4 volunteers, read-out: C max",64.8 ng/mL
same,Tmax,"[2]; 20 mg, mean of 4 volunteers, read-out: T max",1.5 h
same,Cmax,"[2]; 20 mg, volunteer 1, read-out: C max",56 ng/mL
same,Tmax,"[2]; 20 mg, volunteer 1, read-out: T max",1.5 h
same,Cmax,"[2]; 20 mg, volunteer 2, read-out: C max",55 ng/mL
same,Tmax,"[2]; 20 mg, volunteer 2, read-out: T max",1.5 h
same,Cmax,"[2]; 20 mg, volunteer 3, read-out: C max",65 ng/mL
same,Tmax,"[2]; 20 mg, volunteer 3, read-out: T max",2 h
same,Cmax,"[2]; 20 mg, volunteer 4, read-out: C max",83 ng/mL
same,Tmax,"[2]; 20 mg, volunteer 4, read-out: T max",1 h
same,half-life,"[2]; after multiple-doses administration, mean of 4 volunteers, read-out: T1/2 el. (converted)",4.29 h
same,half-life,"[2]; after multiple-doses administration, volunteer 1, read-out: T1/2 el. (converted)",4.11 h
same,half-life,"[2]; after multiple-doses administration, volunteer 2, read-out: T1/2 el. (converted)",4.44 h
same,half-life,"[2]; after multiple-doses administration, volunteer 3, read-out: T1/2 el. (converted)",4.12 h
same,half-life,"[2]; after multiple-doses administration, volunteer 4, read-out: T1/2 el. (converted)",4.49 h
same,half-life,"[2]; after repeated administration, read-out: mean terminal half life (converted)",4.29 h
same,AUC,[2]; mean of 4 volunteers,252 ng·h/mL
same,AUC,[2]; volunteer 1,219 ng·h/mL
same,AUC,[2]; volunteer 2,181 ng·h/mL
same,AUC,[2]; volunteer 3,269 ng·h/mL
same,AUC,[2]; volunteer 4,388 ng·h/mL
same,plasma level relative to peak,"[2]; multiple dose, four hours after administration",reduced to the half
same,plasma level of unchanged drug vs acute treatment at same time,"[2]; multiple dose, two hours after last treatment",three times upper
same,unchanged drug in plasma,"[2]; twelve hours after treatment, multiple dose",still present in the plasma
same,LD50,[3]; iv,12.5 mg/kg
same,LD50,[3]; po,402 mg/kg
same,Death rate %,Sprague-Dawley rats [4]; 0.75 mg/kg p.o.,20%
same,"EBs, mean value of indices + SEM",Sprague-Dawley rats [4]; 0.75 mg/kg p.o.,42.1 ± 9.70
same,VF %,Sprague-Dawley rats [4]; 0.75 mg/kg p.o.,60%
same,"VF, mean value of indices + SEM",Sprague-Dawley rats [4]; 0.75 mg/kg p.o.,3.8 ± 1.77
same,"VT, mean value of indices + SEM",Sprague-Dawley rats [4]; 0.75 mg/kg p.o.,1.3 ± 0.68
same,Death rate %,Sprague-Dawley rats [4]; 1.5 mg/kg p.o.,0%
same,"EBs, mean value of indices + SEM",Sprague-Dawley rats [4]; 1.5 mg/kg p.o.,45.7 ± 6.18
same,VF %,Sprague-Dawley rats [4]; 1.5 mg/kg p.o.,20%
same,"VF, mean value of indices + SEM",Sprague-Dawley rats [4]; 1.5 mg/kg p.o.,0.5 ± 0.49
same,"VT, mean value of indices + SEM",Sprague-Dawley rats [4]; 1.5 mg/kg p.o.,1.9 ± 0.32
same,Death rate %,Sprague-Dawley rats [4]; 3.0 mg/kg p.o.,80%
same,"EBs, mean value of indices + SEM",Sprague-Dawley rats [4]; 3.0 mg/kg p.o.,36.0 ± 9.11
same,VF %,Sprague-Dawley rats [4]; 3.0 mg/kg p.o.,100%
same,"VF, mean value of indices + SEM",Sprague-Dawley rats [4]; 3.0 mg/kg p.o.,4.8 ± 1.41
same,"VT, mean value of indices + SEM",Sprague-Dawley rats [4]; 3.0 mg/kg p.o.,1.6 ± 0.77
same,reduction of the index attributed to EBs and VT,Sprague-Dawley rats [4]; whatever the dosage,~2 fold
same,duration of blood pressure effect,SHR-SP,4 h
same,DBP (dyastolic blood pressure),SHR-SP; 0 min (baseline),17.5
same,HR (heart rate),SHR-SP; 0 min (baseline),360 beats/min
same,MBP (mean blood pressure),SHR-SP; 0 min (baseline),20.0
same,S-D (difference between systolic and diastolic blood pressure),SHR-SP; 0 min (baseline),7.5
same,SBP (systolic blood pressure),SHR-SP; 0 min (baseline),25.0
same,DBP (dyastolic blood pressure),SHR-SP; +1 min,17.0
same,HR (heart rate),SHR-SP; +1 min,360 beats/min
same,MBP (mean blood pressure),SHR-SP; +1 min,19.3
same,S-D (difference between systolic and diastolic blood pressure),SHR-SP; +1 min,7.0
same,SBP (systolic blood pressure),SHR-SP; +1 min,24.0
same,DBP (dyastolic blood pressure),SHR-SP; +2 min,15.0
same,HR (heart rate),SHR-SP; +2 min,360 beats/min
same,MBP (mean blood pressure),SHR-SP; +2 min,17.5
same,S-D (difference between systolic and diastolic blood pressure),SHR-SP; +2 min,7.5
same,SBP (systolic blood pressure),SHR-SP; +2 min,22.5
same,DBP (dyastolic blood pressure),SHR-SP; +5 min,16.0
same,HR (heart rate),SHR-SP; +5 min,360 beats/min
same,MBP (mean blood pressure),SHR-SP; +5 min,18.7
same,S-D (difference between systolic and diastolic blood pressure),SHR-SP; +5 min,8.0
same,SBP (systolic blood pressure),SHR-SP; +5 min,24.0
same,DBP (dyastolic blood pressure),SHR-SP; +10 min,13.5
same,HR (heart rate),SHR-SP; +10 min,360 beats/min
same,MBP (mean blood pressure),SHR-SP; +10 min,16.2
same,S-D (difference between systolic and diastolic blood pressure),SHR-SP; +10 min,8.0
same,SBP (systolic blood pressure),SHR-SP; +10 min,21.5
same,DBP (dyastolic blood pressure),SHR-SP; +15 min,13.0
same,HR (heart rate),SHR-SP; +15 min,360 beats/min
same,MBP (mean blood pressure),SHR-SP; +15 min,15.7
same,S-D (difference between systolic and diastolic blood pressure),SHR-SP; +15 min,8.0
same,SBP (systolic blood pressure),SHR-SP; +15 min,21.0
same,DBP (dyastolic blood pressure),SHR-SP; +30 min,11.0
same,HR (heart rate),SHR-SP; +30 min,340 beats/min
same,MBP (mean blood pressure),SHR-SP; +30 min,13.7
same,S-D (difference between systolic and diastolic blood pressure),SHR-SP; +30 min,8.0
same,SBP (systolic blood pressure),SHR-SP; +30 min,19.0
same,DBP (dyastolic blood pressure),SHR-SP; +60 min,10.0
same,HR (heart rate),SHR-SP; +60 min,300 beats/min
same,MBP (mean blood pressure),SHR-SP; +60 min,12.0
same,S-D (difference between systolic and diastolic blood pressure),SHR-SP; +60 min,7.0
same,SBP (systolic blood pressure),SHR-SP; +60 min,17.0
same,DBP (dyastolic blood pressure),SHR-SP; +120 min,11.5
same,HR (heart rate),SHR-SP; +120 min,360 beats/min
same,MBP (mean blood pressure),SHR-SP; +120 min,13.5
same,S-D (difference between systolic and diastolic blood pressure),SHR-SP; +120 min,6.0
same,SBP (systolic blood pressure),SHR-SP; +120 min,17.5
same,DBP (dyastolic blood pressure),SHR-SP; +180 min,8.0
same,HR (heart rate),SHR-SP; +180 min,400 beats/min
same,MBP (mean blood pressure),SHR-SP; +180 min,9.8
same,S-D (difference between systolic and diastolic blood pressure),SHR-SP; +180 min,5.5
same,SBP (systolic blood pressure),SHR-SP; +180 min,13.5
same,DBP (dyastolic blood pressure),SHR-SP; +240 min,6.0
same,HR (heart rate),SHR-SP; +240 min,420 beats/min
same,MBP (mean blood pressure),SHR-SP; +240 min,7.5
same,S-D (difference between systolic and diastolic blood pressure),SHR-SP; +240 min,4.5
same,SBP (systolic blood pressure),SHR-SP; +240 min,10.5
